Reference: patent publication US10202361B2, “Pyridazinones as herbicides” (E I DU PONT DE NEMOURS AND COMPANY, priority 2014, dated 2019)
Like-named read-outs stand apart in the source and are kept apart here.

Experiments:
Test in all cases: Test C pre-/postemergence greenhouse herbicide test
Format in all cases: in vivo
[1] = system: blackgrass (Alopecurus myosuroides); details: Alopecurus myosuroides, Blackgrass, read-out: Plant response rating; for pest or weed control at 31 g/ha: 31 g ai/ha; for pest or weed control at 62 g/ha: 62 g ai/ha; for pest or weed control at 125 g/ha: 125 g ai/ha; for pest or weed control at 250 g/ha: 250 g ai/ha
Procedure, shortened: (§1)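 Seeds in loam–sand blend sprayed preemergence, and 1- to 4-leaf plants (2–18 cm) sprayed postemergence, with compounds in non-phytotoxic solvent plus surfactant. Visual rating versus controls after 13–15 d in greenhouse, 0 (no effect) to 100 (complete control).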

corn (Zea mays) = details: Zea mays, Corn, read-out: Plant response rating; for plant injury at 31 g/ha: 31 g ai/ha; for plant injury at 62 g/ha: 62 g ai/ha; for plant injury at 125 g/ha: 125 g ai/ha; for plant injury at 250 g/ha: 250 g ai/ha
Procedure, shortened: as §1

[2] = system: crabgrass, Large (large crabgrass, Digitaria sanguinalis); details: Digitaria sanguinalis, Crabgrass, Large, read-out: Plant response rating; for pest or weed control at 31 g/ha: 31 g ai/ha; for pest or weed control at 62 g/ha: 62 g ai/ha; for pest or weed control at 125 g/ha: 125 g ai/ha; for pest or weed control at 250 g/ha: 250 g ai/ha
Procedure, shortened: as §1

kochia (Kochia scoparia) = details: Postemergence
Procedure, shortened: as §1

[3] = system: lambsquarters (Chenopodium album)
Procedure, shortened: as §1

[4] = system: morningglory (Ipomoea coccinea); details: Morningglory
Procedure, shortened: as §1

[5] = system: oat, wild (wild oat, Avena fatua); details: Postemergence
Procedure, shortened: as §1

[6] = system: pigweed (Amaranthus retroflexus); details: Amaranthus retroflexus, Pigweed, read-out: Plant response rating; for pest or weed control at 31 g/ha: 31 g ai/ha; for pest or weed control at 62 g/ha: 62 g ai/ha; for pest or weed control at 125 g/ha: 125 g ai/ha; for pest or weed control at 250 g/ha: 250 g ai/ha
Procedure, shortened: as §1

[7] = system: ragweed (common ragweed, Ambrosia elatior); details: Ambrosia artemisiifolia, Ragweed, read-out: Plant response rating; for pest or weed control at 31 g/ha: 31 g ai/ha; for pest or weed control at 62 g/ha: 62 g ai/ha; for pest or weed control at 125 g/ha: 125 g ai/ha; for pest or weed control at 250 g/ha: 250 g ai/ha
Procedure, shortened: as §1

[8] = system: ryegrass, Italian (Italian ryegrass, Lolium multiflorum); details: Lolium multiflorum, Ryegrass, Italian, read-out: Plant response rating; for pest or weed control at 31 g/ha: 31 g ai/ha; for pest or weed control at 62 g/ha: 62 g ai/ha; for pest or weed control at 125 g/ha: 125 g ai/ha; for pest or weed control at 250 g/ha: 250 g ai/ha
Procedure, shortened: as §1

soybean (Glycine max) = details: Glycine max, Soybean, read-out: Plant response rating; for plant injury at 62 g/ha: 62 g ai/ha; for plant injury at 125 g/ha: 125 g ai/ha; for plant injury at 250 g/ha: 250 g ai/ha
Procedure, shortened: as §1

[9] = system: waterhemp (common waterhemp, Amaranthus rudis); details: Waterhemp
Procedure, shortened: as §1

[10] = system: wheat (winter wheat, Triticum aestivum); details: Triticum aestivum, Wheat, read-out: Plant response rating; for plant injury at 62 g/ha: 62 g ai/ha; for plant injury at 125 g/ha: 125 g ai/ha; for plant injury at 250 g/ha: 250 g ai/ha
Procedure, shortened: as §1

COc1cc(=O)n(-c2ccc(C(F)(F)F)cc2)nc1Cc1ccnc(C(F)(F)F)c1 [Compound 16, 5-methoxy-2-[4-(trifluoromethyl)phenyl]-6-[[2-(trifluoromethyl)-4-pyridinyl]methyl]-3(2H)-pyridazinone]
pest or weed control at 31 g/ha ([1]; post-emergence, Postemergence): 5%
pest or weed control at 62 g/ha ([1]; post-emergence, Postemergence): 5%
pest or weed control at 125 g/ha ([1]; post-emergence, Postemergence): 5%
pest or weed control at 250 g/ha ([1]; post-emergence, Postemergence): 10%
pest or weed control at 31 g/ha ([1]; pre-emergence, Preemergence): 40%
pest or weed control at 62 g/ha ([1]; pre-emergence, Preemergence): 50%
pest or weed control at 125 g/ha ([1]; pre-emergence, Preemergence): 60%
pest or weed control at 250 g/ha ([1]; pre-emergence, Preemergence): 90%
plant injury at 31 g/ha (corn (Zea mays); post-emergence, Postemergence): 20%
plant injury at 62 g/ha (corn (Zea mays); post-emergence, Postemergence): 40%
plant injury at 125 g/ha (corn (Zea mays); post-emergence, Postemergence): 40%
plant injury at 250 g/ha (corn (Zea mays); post-emergence, Postemergence): 55%
plant injury at 31 g/ha (corn (Zea mays); pre-emergence, Preemergence): 45%
plant injury at 62 g/ha (corn (Zea mays); pre-emergence, Preemergence): 60%
plant injury at 125 g/ha (corn (Zea mays); pre-emergence, Preemergence): 75%
plant injury at 250 g/ha (corn (Zea mays); pre-emergence, Preemergence): 75%
pest or weed control at 31 g/ha ([2]; post-emergence, Postemergence): 10%
pest or weed control at 62 g/ha ([2]; post-emergence, Postemergence): 25%
pest or weed control at 125 g/ha ([2]; post-emergence, Postemergence): 30%
pest or weed control at 250 g/ha ([2]; post-emergence, Postemergence): 35%
pest or weed control at 31 g/ha ([2]; pre-emergence, Preemergence): 98%
pest or weed control at 62 g/ha ([2]; pre-emergence, Preemergence): 98%
pest or weed control at 125 g/ha ([2]; pre-emergence, Preemergence): 100%
pest or weed control at 250 g/ha ([2]; pre-emergence, Preemergence): 100%
Plant response rating (kochia (Kochia scoparia); 31 g ai/ha): 90
Plant response rating (kochia (Kochia scoparia); 62 g ai/ha): 90
Plant response rating (kochia (Kochia scoparia); 125 g ai/ha): 90
Plant response rating (kochia (Kochia scoparia); 250 g ai/ha): 90
Plant response rating ([3]; Postemergence, 31 g ai/ha): 70
Plant response rating ([3]; Postemergence, 62 g ai/ha): 95
Plant response rating ([3]; Postemergence, 125 g ai/ha): 95
Plant response rating ([3]; Postemergence, 250 g ai/ha): 95
Plant response rating ([3]; Preemergence, 31 g ai/ha): 100
Plant response rating ([3]; Preemergence, 62 g ai/ha): 100
Plant response rating ([3]; Preemergence, 125 g ai/ha): 100
Plant response rating ([3]; Preemergence, 250 g ai/ha): 100
Plant response rating ([4]; Postemergence, 31 g ai/ha): 50
Plant response rating ([4]; Postemergence, 62 g ai/ha): 70
Plant response rating ([4]; Postemergence, 125 g ai/ha): 98
Plant response rating ([4]; Postemergence, 250 g ai/ha): 98
Plant response rating ([4]; Preemergence, 31 g ai/ha): 45
Plant response rating ([4]; Preemergence, 62 g ai/ha): 95
Plant response rating ([4]; Preemergence, 125 g ai/ha): 100
Plant response rating ([4]; Preemergence, 250 g ai/ha): 100
Plant response rating ([5]; 31 g ai/ha): 15
Plant response rating ([5]; 62 g ai/ha): 30
Plant response rating ([5]; 125 g ai/ha): 40
Plant response rating ([5]; 250 g ai/ha): 60
pest or weed control at 31 g/ha ([6]; post-emergence, Postemergence): 55%
pest or weed control at 62 g/ha ([6]; post-emergence, Postemergence): 90%
pest or weed control at 125 g/ha ([6]; post-emergence, Postemergence): 95%
pest or weed control at 250 g/ha ([6]; post-emergence, Postemergence): 95%
pest or weed control at 31 g/ha ([6]; pre-emergence, Preemergence): 100%
pest or weed control at 62 g/ha ([6]; pre-emergence, Preemergence): 100%
pest or weed control at 125 g/ha ([6]; pre-emergence, Preemergence): 100%
pest or weed control at 250 g/ha ([6]; pre-emergence, Preemergence): 100%
pest or weed control at 31 g/ha ([7]; post-emergence, Postemergence): 15%
pest or weed control at 62 g/ha ([7]; post-emergence, Postemergence): 25%
pest or weed control at 125 g/ha ([7]; post-emergence, Postemergence): 60%
pest or weed control at 250 g/ha ([7]; post-emergence, Postemergence): 60%
pest or weed control at 31 g/ha ([7]; pre-emergence, Preemergence): 20%
pest or weed control at 62 g/ha ([7]; pre-emergence, Preemergence): 65%
pest or weed control at 125 g/ha ([7]; pre-emergence, Preemergence): 65%
pest or weed control at 250 g/ha ([7]; pre-emergence, Preemergence): 100%
pest or weed control at 31 g/ha ([8]; post-emergence, Postemergence): 5%
pest or weed control at 62 g/ha ([8]; post-emergence, Postemergence): 5%
pest or weed control at 125 g/ha ([8]; post-emergence, Postemergence): 15%
pest or weed control at 250 g/ha ([8]; post-emergence, Postemergence): 35%
pest or weed control at 31 g/ha ([8]; pre-emergence, Preemergence): 5%
pest or weed control at 62 g/ha ([8]; pre-emergence, Preemergence): 30%
pest or weed control at 125 g/ha ([8]; pre-emergence, Preemergence): 85%
pest or weed control at 250 g/ha ([8]; pre-emergence, Preemergence): 90%
plant injury at 62 g/ha (soybean (Glycine max); post-emergence, Postemergence): 50%
plant injury at 125 g/ha (soybean (Glycine max); post-emergence, Postemergence): 55%
plant injury at 250 g/ha (soybean (Glycine max); post-emergence, Postemergence): 65%
plant injury at 62 g/ha (soybean (Glycine max); pre-emergence, Preemergence): 25%
plant injury at 125 g/ha (soybean (Glycine max); pre-emergence, Preemergence): 65%
plant injury at 250 g/ha (soybean (Glycine max); pre-emergence, Preemergence): 75%
Plant response rating ([9]; Postemergence, 31 g ai/ha): 80
Plant response rating ([9]; Postemergence, 62 g ai/ha): 90
Plant response rating ([9]; Postemergence, 125 g ai/ha): 95
Plant response rating ([9]; Postemergence, 250 g ai/ha): 98
Plant response rating ([9]; Preemergence, 62 g ai/ha): 100
Plant response rating ([9]; Preemergence, 125 g ai/ha): 100
Plant response rating ([9]; Preemergence, 250 g ai/ha): 100
plant injury at 31 g/ha ([10]; post-emergence, Postemergence, 31 g ai/ha): 5%
plant injury at 62 g/ha ([10]; post-emergence, Postemergence): 5%
plant injury at 125 g/ha ([10]; post-emergence, Postemergence): 10%
plant injury at 250 g/ha ([10]; post-emergence, Postemergence): 10%
plant injury at 62 g/ha ([10]; pre-emergence, Preemergence): 25%
plant injury at 125 g/ha ([10]; pre-emergence, Preemergence): 45%
plant injury at 250 g/ha ([10]; pre-emergence, Preemergence): 50%
